Results on 56 compounds are retold here after patent US11083729B2, “Methods of treating cancer with small molecule NF-κB inhibitors” (ImmuneTarget, Inc., priority 2017, dated 2021).

The assay addresses T1, c-Rel protein (Homo sapiens, UniProt Q04864).
T1 sequence (Q04864 1-619): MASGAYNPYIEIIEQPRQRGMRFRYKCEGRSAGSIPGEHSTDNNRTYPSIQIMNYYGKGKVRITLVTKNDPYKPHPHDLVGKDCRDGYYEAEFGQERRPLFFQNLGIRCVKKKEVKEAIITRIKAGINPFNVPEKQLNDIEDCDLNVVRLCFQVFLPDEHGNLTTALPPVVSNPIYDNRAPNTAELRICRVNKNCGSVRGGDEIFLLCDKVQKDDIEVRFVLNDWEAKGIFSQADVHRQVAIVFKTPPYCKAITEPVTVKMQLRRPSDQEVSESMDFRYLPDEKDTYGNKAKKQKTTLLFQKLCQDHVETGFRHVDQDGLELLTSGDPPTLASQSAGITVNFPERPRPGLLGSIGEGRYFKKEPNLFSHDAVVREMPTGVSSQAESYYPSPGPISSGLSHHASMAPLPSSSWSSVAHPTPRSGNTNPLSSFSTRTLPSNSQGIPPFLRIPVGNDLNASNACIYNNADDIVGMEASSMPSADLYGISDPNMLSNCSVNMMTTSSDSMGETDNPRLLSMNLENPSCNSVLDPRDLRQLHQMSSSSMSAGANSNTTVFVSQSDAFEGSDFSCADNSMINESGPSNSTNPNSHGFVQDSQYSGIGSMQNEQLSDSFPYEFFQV
Nature of the assay: Electrophoretic Mobility Shift Assay (EMSA), c-Rel binding to CD28RE oligonucleotide. The conditions noted are these: 10 nM c-Rel protein. On the procedure:
DNA binding reaction (20 μL) was carried out in 1×DNA Binding Buffer (10 mM Tris, 40 mM NaCl, 1 mM EDTA, 4% glycerol) with 10 nM c-Rel protein and 0.5 ng phosphor-labeled CD28RE oligonucleotide for 10 minutes at room temperature in 96-well plates. Test compounds, in serial dilutions, were added into each well, and further incubated for 15 minutes before loading onto native 5% polyacrylamide gel. Electrophoresis proceeded for 2.5 hours at 160V. Radioactive signals were quantified using Phospho-Imager. IC50 of compounds of example 1 to 75 were determined by quantifying the intensity of Rel/NF-κB inhibition in EMSA using phospho-imager. An example of EMSA data of the present invention is shown for compound 6 in FIG. 2.
A general note: In EMSA bound probe runs differently from free probe, usually more slowly.

pIC50: −log10 of the molar value.

By pIC50 is commonly meant −log10 of the IC50, conventionally taken in molar units. On to `O=C(O)COc1ccc2cc3c(=O)[nH]c(=O)nc-3oc2c1Cl` [compound 56], for which the negative-log IC50 (pIC50) is more than 5.30. As for `CC(C)COc1cc2oc3nc(=O)[nH]c(=O)c-3cc2cc1Cl` [compound 38], the figure is more than 6.30; as for `COCCOCCCOc1ccc2cc3c(=O)[nH]c(=O)nc-3oc2c1` [compound 71], more than 6.00; as for `CCCCCCCOc1cc2oc3nc(=O)[nH]c(=O)c-3cc2cc1F` [compound 32], more than 6.30. As for `CC(C)(C)CCOc1ccc2cc3c(=O)[nH]c(=O)nc-3oc2c1Cl` [compound 41], the pIC50 is more than 6.30. Regarding `CCCCOc1ccc2cc3c(=O)[nH]c(=O)nc-3oc2c1` [compound 50], the negative logarithm of the IC50 (pIC50) is more than 6.00. As for `COCCCCOc1ccc2cc3c(=O)[nH]c(=O)nc-3oc2c1F` [compound 68], the figure is more than 6.00. On to `COc1cc(Cl)cc2cc3c(=O)[nH]c(=S)nc-3oc12` [compound 7, 7-chloro-9-methoxy-2-thioxo-2H-chromeno[2,3-d]pyrimidin-4(3H)-one], for which the pIC50 is more than 5.70. As to `COc1ccc2oc3nc(=O)[nH]c(=O)c-3cc2c1` [compound 10, 7-methoxy-2H-chromeno[2,3-d]pyrimidine-2,4(3H)-dione], the pIC50 is more than 6.00.

With `CCCCCCOc1cc2oc3nc(=O)[nH]c(=O)c-3cc2cc1F` [compound 31], the negative logarithm of the IC50 (pIC50) was more than 6.30. As for `CCOc1cc2oc3nc(=O)[nH]c(=O)c-3cc2cc1F` [compound 28, 8-ethoxy-7-fluoro-2H-chromeno[2,3-d]pyrimidine-2,4(3H)-dione], the figure is more than 6.30; as for `COCCCCOc1ccc2cc3c(=O)[nH]c(=O)nc-3oc2c1Cl` [compound 66, 9-chloro-8-(4-methoxybutoxy)-2H-chromeno[2,3-d]pyrimidine-2,4(3H)-dione], more than 6.00. As for `COc1ccc2oc3nc(=S)[nH]c(=O)c-3cc2c1` [compound 15, 7-methoxy-2-thioxo-2H-chromeno[2,3-d]pyrimidin-4(3H)-one], the figure is more than 6.30. As for `CCCCOc1cc2oc3nc(=O)[nH]c(=O)c-3cc2cc1F` [compound 29], the figure is more than 6.30; as for `CC(C)CCOc1cc2oc3nc(=O)[nH]c(=O)c-3cc2cc1F` [compound 33], more than 6.30. Take `COc1ccc2cc3c(=O)[nH]c(=O)nc-3oc2c1` [compound 6, 8-methoxy-2H-chromeno[2,3-d]pyrimidine-2,4(3H)-dione]: the pIC50 was more than 6.00. As for `COc1cccc2cc3c(=O)[nH]c(=O)nc-3oc12` [compound 1, 9-methoxy-2H-chromeno[2,3-d]pyrimidine-2,4(3H)-dione], the figure is more than 5.70. As for `CCCOc1cc2oc3nc(=O)[nH]c(=O)c-3cc2cc1Cl` [compound 20, 7-chloro-8-propoxy-2H-chromeno[2,3-d]pyrimidine-2,4(3H)-dione], the figure is more than 6.00; as for `CCOc1ccc2cc3c(=O)[nH]c(=O)nc-3oc2c1` [compound 13, 8-ethoxy-2H-chromeno[2,3-d]pyrimidine-2,4(3H)-dione], more than 6.00. As for `COCCOCCCOc1ccc2cc3c(=O)[nH]c(=O)nc-3oc2c1Cl` [compound 72], the figure is more than 6.00. Consider `COCCCCOc1cc2oc3nc(=O)[nH]c(=O)c-3cc2cc1Cl` [compound 69], for which the pIC50 is more than 6.00. As for `COCCCCOc1ccc2cc3c(=O)[nH]c(=O)nc-3oc2c1` [compound 67], the figure is more than 6.00; as for `COCCOCCOc1ccc2cc3c(=O)[nH]c(=O)nc-3oc2c1F` [compound 63], more than 6.00; as for `CCCCCCOc1ccc2cc3c(=O)[nH]c(=O)nc-3oc2c1` [compound 21, 8-(n-hexyloxy)-2H-chromeno[2,3-d]pyrimidine-2,4(3H)-dione], more than 6.00. For `CCCCCCOc1ccc2cc3c(=O)[nH]c(=O)nc-3oc2c1Cl` [compound 44], the pIC50 was more than 6.30. Regarding `CC(=O)OCCCCCCOc1ccc2cc3c(=O)[nH]c(=O)nc-3oc2c1Cl` [compound 58], the pIC50 was more than 5.30. As for `CCCCCOc1ccc2cc3c(=O)[nH]c(=O)nc-3oc2c1Cl` [compound 39], the figure is more than 6.30; as for `CCCCn1c(=O)nc2oc3cc(OCC)c(Cl)cc3cc-2c1=O` [compound 26, 3-butyl-7-chloro-8-ethoxy-2H-chromeno[2,3-d]pyrimidine-2,4(3H)-dione], more than 6.00; as for `COCCOCCCOc1ccc2cc3c(=O)[nH]c(=O)nc-3oc2c1F` [compound 73], more than 6.00. As for `O=c1[nH]c(=S)nc2oc3cc(O)ccc3cc1-2` [compound 16, 8-hydroxy-2-thioxo-2H-chromeno[2,3-d]pyrimidin-4(3H)-one], the figure is more than 6.30; as for `CCCCCOc1cc2oc3nc(=O)[nH]c(=O)c-3cc2cc1F` [compound 30], more than 6.30; as for `COCCCCOc1cc2oc3nc(=O)[nH]c(=O)c-3cc2cc1F` [compound 70], more than 6.00. As for `O=C(O)CCCOc1ccc2cc3c(=O)[nH]c(=O)nc-3oc2c1Cl` [compound 55], the figure is more than 5.30; as for `CCOc1ccc2cc3c(=O)[nH]c(=O)nc-3sc2c1` [compound 49, 8-ethoxy-2H-thiochromeno[2,3-d]pyrimidine-2,4(3H)-dione], more than 6.00; as for `CC(C)(C)CCOc1cc2oc3nc(=O)[nH]c(=O)c-3cc2cc1F` [compound 34], more than 6.30.

Regarding `CC(=O)OCCCCOc1ccc2cc3c(=O)[nH]c(=O)nc-3oc2c1` [compound 51], the pIC50 was more than 6.00. As for `COc1cc(OC)c2cc3c(=O)[nH]c(=S)nc-3oc2c1` [compound 18, 6,8-dimethoxy-2-thioxo-2H-chromeno[2,3-d]pyrimidin-4(3H)-one], the figure is more than 6.30; as for `COCCOCCOc1cc2oc3nc(=O)[nH]c(=O)c-3cc2cc1Cl` [compound 64], more than 6.00; as for `CCCCCCCOc1ccc2cc3c(=O)[nH]c(=O)nc-3oc2c1F` [compound 52], more than 6.30.

`COCCOCCOc1ccc2cc3c(=O)[nH]c(=O)nc-3oc2c1Cl` [compound 62]: the pIC50 is more than 6.00.

For `COc1cc(Cl)cc2cc3c(=O)[nH]c(=O)nc-3oc12` [compound 3, 7-chloro-9-methoxy-2H-chromeno[2,3-d]pyrimidine-2,4(3H)-dione], the pIC50 was more than 5.70.

For the compound `COCCOCCOc1cc2oc3nc(=O)[nH]c(=O)c-3cc2cc1F` [compound 65], the pIC50 is more than 6.00. As for `CC(C)COc1ccc2cc3c(=O)[nH]c(=O)nc-3oc2c1F` [compound 48], the figure is more than 6.30; as for `COc1ccc2cc3c(=O)[nH]c(=S)nc-3oc2c1` [compound 8, 8-methoxy-2-thioxo-2H-chromeno[2,3-d]pyrimidin-4(3H)-one], more than 6.30; as for `CCOc1cccc2cc3c(=O)[nH]c(=O)nc-3oc12` [compound 2, 9-ethoxy-2H-chromeno[2,3-d]pyrimidine-2,4(3H)-dione], more than 5.70. Turning to `O=c1nc2oc3ccccc3cc-2c(=O)[nH]1` [compound 9, 2H-chromeno[2,3-d]pyrimidine-2,4(3H)-dione], the pIC50 is more than 5.30. As for `O=C(O)CCCCCOc1ccc2cc3c(=O)[nH]c(=O)nc-3oc2c1Cl` [compound 53, 6-((9-chloro-2,4-dioxo-3,4-dihydro-2H-chromeno[2,3-d]pyrimidin-8-yl)oxy)hexanoic acid], the figure is more than 5.30; as for `Cc1cc2oc3nc(=O)[nH]c(=O)c-3cc2cc1F` [compound 27, 7-fluoro-8-methyl-2H-chromeno[2,3-d]pyrimidine-2,4(3H)-dione], more than 6.30. Take `CC(=O)OCCCOc1ccc2cc3c(=O)[nH]c(=O)nc-3oc2c1Cl` [compound 59]: the negative logarithm of the IC50 (pIC50) is more than 5.30. Turning to `CC(C)CCOc1ccc2cc3c(=O)[nH]c(=O)nc-3oc2c1Cl` [compound 40], the negative-log IC50 (pIC50) was more than 6.30.

As for `CCCCOc1ccc2cc3c(=O)[nH]c(=O)nc-3oc2c1Cl` [compound 43], the pIC50 was more than 6.30. As to `CCCCCCOc1ccc2cc3c(=O)[nH]c(=O)nc-3oc2c1F` [compound 46], the pIC50 was more than 6.30. As to `COCCOCCCOc1cc2oc3nc(=O)[nH]c(=O)c-3cc2cc1Cl` [compound 74], the pIC50 is more than 6.00. As for `CCCOc1ccc2cc3c(=O)[nH]c(=O)nc-3oc2c1` [compound 19, 8-propoxy-2H-chromeno[2,3-d]pyrimidine-2,4(3H)-dione], the figure is more than 6.00; as for `COCCOCCOc1ccc2cc3c(=O)[nH]c(=O)nc-3oc2c1` [compound 61, 8-(2-(2-methoxyethoxy)ethoxy)-2H-chromeno[2,3-d]pyrimidine-2,4(3H)-dione], more than 6.00. As for `COCCOCCCOc1cc2oc3nc(=O)[nH]c(=O)c-3cc2cc1F` [compound 75, 7-fluoro-8-(3-(2-methoxyethoxy)propoxy)-2H-chromeno[2,3-d]pyrimidine-2,4(3H)-dione], the pIC50 is more than 6.00.
